In US10087478B2, “Compositions comprising a polypeptide having cellulolytic enhancing activity and a nitrogen-containing compound and uses thereof” (priority 2010, dated 2018):

Key:
[1] = tested on: Trichoderma reesei cellulase composition; test: Nitrogen-containing compound effect(no GH61) on hydrolysis of AVICEL by T. reesei cellulase composition; type: biochemical; conditions: for reduction in hydrolysis: no GH61
Description: The concentration of 1,2-benzenediamine compounds was 5 mM and the concentration of 2-aminophenol was 1 mM.
The concentration of nitrogen-containing compounds was 5 mM.
(§1) The concentration of the GH61 polypeptide was either 0.4 or 2 mg per g cellulose.

[2] = tested on: Penicillium pinophilum GH61A polypeptide; test: Effect of TEMPO on P. pinophilum GH61A during AVICEL hydrolysis by T. reesei cellulase composition; type: biochemical; conditions: GH61 0.4 or 2 mg per g cellulose, day 7
Description: as §1

[3] = target: Aspergillus fumigatus GH61B polypeptide (Aspergillus fumigatus, UniProt Q4WP32); test: Effect of TEMPO on A. fumigatus GH61B during AVICEL hydrolysis by T. reesei cellulase composition; type: biochemical; conditions: GH61 0.4 or 2 mg per g cellulose, day 7
Description: as §1

[4] = tested on: Talaromyces stipitatus GH61 polypeptide; test: Effect of TEMPO on T. stipitatus GH61 during AVICEL hydrolysis by T. reesei cellulase composition; type: biochemical; conditions: GH61 0.4 or 2 mg per g cellulose, day 7
Description: as §1

[5] = target: Trichoderma reesei GH61B polypeptide (Trichoderma reesei, UniProt Q7Z9M7); test: Effect of TEMPO on T. reesei GH61B during AVICEL hydrolysis by T. reesei cellulase composition; type: biochemical; conditions: GH61 0.4 or 2 mg per g cellulose, day 7
Trichoderma reesei GH61B polypeptide, sequence (Q7Z9M7 20-249): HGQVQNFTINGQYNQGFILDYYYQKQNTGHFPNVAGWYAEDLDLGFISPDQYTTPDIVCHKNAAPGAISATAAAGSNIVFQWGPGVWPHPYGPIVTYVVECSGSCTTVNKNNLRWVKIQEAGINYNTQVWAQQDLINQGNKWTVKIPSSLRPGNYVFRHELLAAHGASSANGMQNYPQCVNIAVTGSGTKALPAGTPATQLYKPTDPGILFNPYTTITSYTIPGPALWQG
Description: as §1

[6] = tested on: Thielavia terrestris GH61E polypeptide; test: Effect of TEMPO on T. terrestris GH61E during AVICEL hydrolysis by T. reesei cellulase composition; type: biochemical
Description: as §1

[7] = tested on: T. reesei cellulase composition; test: AVICEL cellulolysis by T. reesei cellulase composition with combinations of compounds and various GH61 polypeptides; type: biochemical, Trichoderma reesei
[8] = tested on: Trichoderma reesei cellulase composition; test: Hydrolysis of AVICEL by T. reesei cellulase composition with and without GH61 polypeptide, no nitrogen-containing compound; type: biochemical
Excerpt: Microcrystalline cellulose was used as the source of the cellulosic material.

[9] = Example 6, 5 mM compound, 14 mg/ml AVICEL, 1, 3, 5, 7 or 8 days (FIG. 2 white bars)
[10] = pterin dissolved in DMSO, cellulose 29.5 mg per ml, 7 days

Molecule: Nc1ccccc1N [1,2-benzenediamine]
- nitrogen-containing compound effect(no GH61) ([1]; 5 mM compound, 14 mg/ml AVICEL, 1, 5 and 8 days (FIG. 1A)): less than 1

Molecule: Nc1ccccc1O [2-aminophenol]
- nitrogen-containing compound effect(no GH61) ([1]; 1 mM 2-aminophenol, cellulose 29.5 mg per ml, 3 days): 0.951±0.0198
- nitrogen-containing compound effect(no GH61) ([1]; 1 mM 2-aminophenol, cellulose 29.5 mg per ml, 7 days): 0.902±0.0301
- reduction in hydrolysis ([1]; 1 mM 2-aminophenol, 3 days): approximately 5%
- reduction in hydrolysis ([1]; 1 mM 2-aminophenol, 7 days): approximately 10%

Molecule: CC1(C)CCCC(C)(C)N1[O] [TEMPO, 2,2,6,6-tetramethyl-1-piperidinyloxy]
- nitrogen-containing compound effect(no GH61) [1, 9]: less than 1
- nitrogen-containing compound effect(no GH61) ([1]; Example 7, TEMPO, late stage of hydrolysis, day 7 (FIGS. 3A, 3B)): less than 1
- GH61 effect [2]: greater than 1
- nitrogen-containing compound effect(+GH61) [2]: less than 1
- GH61 effect [3]: greater than 1
- nitrogen-containing compound effect(+GH61) ([3]; late stage): less than 1
- GH61 effect [4]: greater than 1
- nitrogen-containing compound effect(+GH61) [4]: less than 1
- GH61 effect [5]: greater than 1
- nitrogen-containing compound effect(+GH61) [5]: less than 1
- nitrogen-containing compound effect(+GH61) ([6]; GH61 0.4 or 2 mg per g cellulose, 1, 3 and 7 days): ~1
- GH61 effect ([6]; GH61 0.4 or 2 mg per g cellulose, day 1): greater than 1

Molecule: CC(C)=NO [acetone oxime]
- nitrogen-containing compound effect(no GH61) [1, 9]: less than 1

Molecule: CC1Nc2nc(N)[nH]c(=O)c2NC1C.Cl (stereo not shown) [6,7-dimethyl-5,6,7,8-tetrahydropterine hydrochloride]
- nitrogen-containing compound effect(no GH61) ([1]; pterin dissolved in DMSO, cellulose 29.5 mg per ml, 1 day (so in the source)): 0.715±0.00557
- nitrogen-containing compound effect(no GH61) [1, 10]: 0.684±0.0203

Molecule: C[C@H](O)[C@H](O)[C@H]1CNc2nc(N)[nH]c(=O)c2N1.Cl.Cl [(6R)-5,6,7,8-tetrahydrobiopterin dihydrochloride]
- nitrogen-containing compound effect(no GH61) ([1]; pterin dissolved in DMSO, cellulose 29.5 mg per ml, 3 days): 0.924±0.0191
- nitrogen-containing compound effect(no GH61) [1, 10]: 0.901±0.0332

Molecule: O=C1NC(=O)C(=NO)C(=O)N1 [violuric acid]
- nitrogen-containing compound effect(no GH61) [1, 9]: very slightly impacted

Molecule: ON=Cc1ccccn1 [pyridine-2-aldoxime]
- nitrogen-containing compound effect(no GH61) [1, 9]: slightly decreased

B1: A. fumigatus GH61B polypeptide: GH61 polypeptide having cellulolytic enhancing activity, SEQ ID NO: 30, recombinantly prepared in Aspergillus oryzae JaL355 (protein, listed as Aspergillus fumigatus)
chain: MTLSKITSIAGLLASASLVAGHGFVSGIVADGKYYGGYLVNQYPYMSNPPDTIAWSTTATDLGFVDGTGYQSPDIICHRDAKNGKLTATVAAGSQIEFQWTTWPESHHGPLITYLAPCNGDCATVDKTTLKFVKIAAQGLIDGSNPPGVWADDEMIANNNTATVTIPASYAPGNYVLRHEIIALHSAGNLNGAQNYPQCFNIQITGGGSAQGSGTAGTSLYKNTDPGIKFDIYSDLSGGYPIPGPALFNA
- overall conversion of AVICEL, comparison of GH61 polypeptides ([7]; mixtures of compounds at 3 mM): highest overall conversion

B2: T. aurantiacus GH61A polypeptide: GH61A polypeptide having cellulolytic enhancing activity, SEQ ID NO: 14, recombinantly prepared in Aspergillus oryzae JaL250 (protein, listed as Thermoascus aurantiacus)
chain: MSFSKIIATAGVLASASLVAGHGFVQNIVIDGKYYGGYLVNQYPYMSNPPEVIAWSTTATDLGFVDGTGYQTPDIICHRGAKPGALTAPVSPGGTVELQWTPWPDSHHGPVINYLAPCNGDCSTVDKTQLEFFKIAESGLINDDNPPGIWASDNLIAANNSWTVTIPTTIAPGNYVLRHEIIALHSAQNQDGAQNYPQCINLQVTGGGSDNPAGTLGTALYHDTDPGILINIYQKLSSYIIPGPPLYTG
- Percent conversion of AVICEL ([8]; 14 mg/ml AVICEL, cellulase 4 mg/g cellulose, GH61 0.4 mg/g where present, pH 5.0, 50° C., 1 day): 16±1%
- Percent conversion of AVICEL ([8]; same conditions, 3 days): 30±4%
- Percent conversion of AVICEL ([8]; same conditions, 5 days): 42.7±0.9%
- Percent conversion of AVICEL ([8]; same conditions, 7 days): 45±4%
- Percent conversion of AVICEL ([8]; same conditions, 8 days): 52.9±0.8%
- overall conversion of AVICEL, comparison of GH61 polypeptides ([7]; most mixtures of compounds at 1 mM): greatest overall conversion
